Results reported in patent US20140051679A1, “KINASE INHIBITORS AND METHOD OF TREATING CANCER WITH SAME” (UNIVERISTY HEALTH NETWORKS, priority 2011, published 2014).

Assays:
Aurora B = biological target: T1, Aurora B (Homo sapiens, UniProt Q96GD4); assay: Aurora B inhibition assay (Z-Lyte); format: biochemical; details: 28 nM Aurora B, 128 μM ATP; read-out: IC50 Ranges Aurora B
T1 construct: purchased Invitrogen PV3970
Description: Aurora B inhibition was determined using the Z-Lyte assay kit from Invitrogen. The assay was performed using the recommended manufacturer's instructions with 128 μM ATP and 28 nM Aurora B (Invitrogen cat #PV3970). The % inhibition values were determined according to the manufacturer's directions and IC50 values were obtained using a non-linear 4 point logistic curve fit (XLfit4, IDBS)

[1] = system: PA-1 ovarian cancer cells; assay: Cell growth inhibition, Sulforhodamine B assay, PA-1; format: cell-based; details: 120 h, 5 days culture, SRB assay, read-out: Cell Line GI50 Range PA-1
HT29 colon cancer cells = assay: Cell growth inhibition, Sulforhodamine B assay, HT29; format: cell-based; details: Homo sapiens, HT-29, 120 h, 5 days culture, SRB assay, read-out: Cell Line GI50 Range HT29
[2] = system: HCT116 colon cancer cells; assay: Cell growth inhibition, Sulforhodamine B assay, HCT116; format: cell-based; details: Homo sapiens, HCT-116, 120 h, 5 days culture, SRB assay, read-out: Cell Line GI50 Range HCT116
human PLK4 = biological target: T2, human PLK4 (Homo sapiens, UniProt O00444); assay: PLK4 inhibition assay (indirect ELISA); format: biochemical; details: GST-PLK4 4 nM, 15 μM ATP; read-out: IC50 Ranges PLK4
T2 construct: amino terminal GST fusion of residues 1-391 of human PLK4; made in house; host or cells: E. coli
T2 sequence (O00444 1-391): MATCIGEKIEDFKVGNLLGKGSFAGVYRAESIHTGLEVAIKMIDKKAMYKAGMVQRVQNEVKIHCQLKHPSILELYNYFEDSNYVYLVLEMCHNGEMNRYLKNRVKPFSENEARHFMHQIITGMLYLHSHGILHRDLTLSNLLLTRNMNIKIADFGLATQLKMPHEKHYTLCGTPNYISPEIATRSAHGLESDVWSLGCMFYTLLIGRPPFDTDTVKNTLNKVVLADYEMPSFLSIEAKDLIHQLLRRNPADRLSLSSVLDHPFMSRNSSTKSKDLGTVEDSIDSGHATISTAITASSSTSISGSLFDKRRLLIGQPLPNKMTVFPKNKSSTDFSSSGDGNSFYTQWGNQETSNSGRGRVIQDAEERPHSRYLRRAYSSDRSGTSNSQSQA
Method in brief: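 Compounds were tested either at a single 10 μM dose or across 10-point titrations (typically 0.5 to 0.001 μM), preincubated 15 min with 4 nM GST-PLK4 (human 1-391, dephosphorylated) before 15 μM ATP was added. MBP substrate phosphorylation over 30 min, pH 7.5 HEPES/MgCl2 buffer, read by HRP/TMB ELISA (450 nm). % inhibition vs. high-activity control; IC50 by logistic fit.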

human TTK = biological target: T3, human TTK (Homo sapiens, UniProt P33981); assay: TTK inhibition assay (indirect ELISA); format: biochemical; details: GST-TTK 0.68 nM, 16 μM ATP; read-out: IC50 Ranges TTK
T3 construct: amino terminal GST fusion of full length human TTK; purchased Invitrogen
T3 sequence (P33981 1-857): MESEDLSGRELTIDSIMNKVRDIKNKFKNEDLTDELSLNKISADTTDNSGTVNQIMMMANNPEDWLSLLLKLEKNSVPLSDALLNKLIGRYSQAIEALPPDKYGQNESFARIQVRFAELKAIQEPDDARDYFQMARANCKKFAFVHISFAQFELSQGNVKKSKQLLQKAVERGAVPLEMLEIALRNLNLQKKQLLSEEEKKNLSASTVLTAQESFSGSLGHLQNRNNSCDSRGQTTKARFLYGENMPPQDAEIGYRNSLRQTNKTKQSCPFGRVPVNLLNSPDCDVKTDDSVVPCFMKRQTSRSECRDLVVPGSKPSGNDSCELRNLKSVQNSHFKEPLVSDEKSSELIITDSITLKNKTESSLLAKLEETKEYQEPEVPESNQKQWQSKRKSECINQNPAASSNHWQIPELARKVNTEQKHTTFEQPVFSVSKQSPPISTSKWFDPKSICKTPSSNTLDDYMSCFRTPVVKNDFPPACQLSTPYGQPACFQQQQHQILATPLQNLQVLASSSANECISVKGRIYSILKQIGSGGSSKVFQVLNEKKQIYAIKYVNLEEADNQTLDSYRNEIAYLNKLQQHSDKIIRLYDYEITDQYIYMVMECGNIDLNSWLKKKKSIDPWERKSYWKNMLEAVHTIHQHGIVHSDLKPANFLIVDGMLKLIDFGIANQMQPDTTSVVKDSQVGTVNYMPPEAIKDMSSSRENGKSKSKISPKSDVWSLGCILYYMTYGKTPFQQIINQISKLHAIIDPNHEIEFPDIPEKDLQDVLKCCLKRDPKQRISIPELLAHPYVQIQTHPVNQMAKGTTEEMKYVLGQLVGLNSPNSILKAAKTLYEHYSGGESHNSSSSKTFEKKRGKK

[3] = system: MDA-MB-468 breast cancer cells; assay: Cell growth inhibition, Sulforhodamine B assay, MDA-MB-468; format: cell-based; details: Homo sapiens, 120 h, 5 days culture, SRB assay, read-out: Cell Line GI50 Range MDA-MB-468
[4] = system: OVCAR-3 ovarian cancer cells; assay: Cell growth inhibition, Sulforhodamine B assay, OVCAR-3; format: cell-based; details: Homo sapiens, 120 h, 5 days culture, SRB assay, read-out: Cell Line GI50 Range OVCAR-3
[5] = system: MDA-MB-231 breast cancer cells; assay: Cell growth inhibition, Sulforhodamine B assay, MDA-MB-231; format: cell-based; details: Homo sapiens, 120 h, 5 days culture, SRB assay, read-out: Cell Line GI50 Range MDA-MB-231

T1 sequence (Q96GD4 whole entry): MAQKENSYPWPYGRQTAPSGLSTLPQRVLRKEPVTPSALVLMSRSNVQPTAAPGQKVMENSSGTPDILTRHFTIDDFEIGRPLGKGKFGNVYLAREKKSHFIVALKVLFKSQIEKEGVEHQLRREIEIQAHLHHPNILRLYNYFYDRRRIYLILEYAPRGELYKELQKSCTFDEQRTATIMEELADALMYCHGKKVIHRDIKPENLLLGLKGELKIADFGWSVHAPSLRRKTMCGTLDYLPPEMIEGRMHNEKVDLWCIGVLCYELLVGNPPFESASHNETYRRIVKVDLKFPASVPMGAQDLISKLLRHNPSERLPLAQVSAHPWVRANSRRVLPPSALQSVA

IC50 (Aurora B) [µM] | GI50 [1] [µM] | GI50 (HT29 colon cancer cells) [µM] | GI50 [2] [µM] | IC50 (human PLK4) [µM] | IC50 (human TTK) [µM] | GI50 [3] [µM] | GI50 [4] [µM] | GI50 [5] [µM] | Compound
≤ 5 | ≤ 5 |  | ≤ 5 | ≤ 5 | ≤ 5 | ≤ 5 |  |  | O=C(N[C@H](c1ccccn1)C1CC1)c1ccc2[nH]nc(-c3ccc(OC4CCN(C5COC5)CC4)cc3)c2c1 [Example A197, (S)—N-(cyclopropyl(pyridin-2-yl)methyl)-3-(4-((1-(oxetan-3-yl)piperidin-4-yl)oxy)phenyl)-1H-indazole-5-carboxamide]
≤ 5 | ≤ 5 |  | ≤ 5 | ≤ 5 | ≤ 5 | ≤ 5 |  |  | CC(C)(O)C1CCN(c2ccc(-c3n[nH]c4ccc(NC(=O)C(c5ccsc5)N5CCC5)cc34)cc2)CC1 (stereo not drawn) [Example A201, 2-(azetidin-1-yl)-N-(3-(4-(4-(2-hydroxypropan-2-yl)piperidin-1-yl)phenyl)-1H-indazol-5-yl)-2-(thiophen-3-yl)acetamide]
≤ 5 | ≤ 5 |  | ≤ 5 | ≤ 5 | ≤ 5 | ≤ 5 |  |  | COc1cc(-c2n[nH]c3ccc(C(=O)NC(c4ccccn4)C4CC4)cc23)ccc1OC1CCN(C2COC2)CC1 (stereo not drawn) [Example A195]
≤ 5 | ≤ 5 |  | ≤ 5 | ≤ 5 | ≤ 5 | ≤ 5 |  |  | O=CN1CCC(Oc2ccc(-c3n[nH]c4ccc(C(=O)N[C@H](c5ccccn5)C5CC5)cc34)cc2)CC1 [Example A204, (S)—N-(cyclopropyl(pyridin-2-yl)methyl)-3-(4-((1-formylpiperidin-4-yl)oxy)phenyl)-1H-indazole-5-carboxamide]
≤ 5 | ≤ 5 |  | ≤ 5 | ≤ 5 | ≤ 5 | ≤ 5 |  |  | O=C(NC(c1ccsc1)C1CCC1)c1ccc2[nH]nc(-c3ccc(N4CCOCC4)cc3)c2c1 (stereo not drawn) [Example A123, N-(cyclobutyl(thiophen-3-yl)methyl)-3-(4-morpholinophenyl)-1H-indazole-5-carboxamide]
≤ 5 | ≤ 5 |  | ≤ 5 | ≤ 5 | ≤ 5 | ≤ 5 |  |  | O=CN1CCC(Oc2ccc(-c3n[nH]c4ccc(C(=O)N[C@@H](c5ccccn5)C5CC5)cc34)cc2)CC1 [Example A203, (R)—N-(cyclopropyl(pyridin-2-yl)methyl)-3-(4-((1-formylpiperidin-4-yl)oxy)phenyl)-1H-indazole-5-carboxamide]
≤ 5 | ≤ 5 |  | ≤ 5 | ≤ 5 | ≤ 5 | ≤ 5 |  |  | O=C(N[C@@H](c1ccccn1)C1CC1)c1ccc2[nH]nc(-c3ccc(OC4CCN(C5COC5)CC4)cc3)c2c1 [Example A196, (R)—N-(cyclopropyl(pyridin-2-yl)methyl)-3-(4-((1-(oxetan-3-yl)piperidin-4-yl)oxy)phenyl)-1H-indazole-5-carboxamide]

More lines, now with the values behind:

Compound | IC50 (Aurora B) [µM] | GI50 [1] [µM] | GI50 (HT29 colon cancer cells) [µM] | GI50 [2] [µM] | IC50 (human PLK4) [µM] | IC50 (human TTK) [µM] | GI50 [3] [µM] | GI50 [4] [µM] | GI50 [5] [µM]
C[C@@H]1CCCN1[C@@H](C(=O)Nc1ccc2[nH]nc(-c3ccc(N4CCOCC4)cc3)c2c1)c1ccsc1 [Example A97, (R)-2-((R)-2-methylpyrrolidin-1-yl)-N-(3-(4-morpholinophenyl)-1H-indazol-5-yl)-2-(thiophen-3-yl)acetamide] | ≤ 5 | ≤ 5 | ≤ 5 | ≤ 5 | ≤ 5 | ≤ 5 | ≤ 5 |  | 
O=C(Nc1ccc2[nH]nc(-c3ccc(N4CCC(O)CC4)cc3)c2c1)C(c1cccs1)N1CCCC1 (stereo not drawn) [Example A88, N-(3-(4-(4-hydroxypiperidin-1-yl)phenyl)-1H-indazol-5-yl)-2-(pyrrolidin-1-yl)-2-(thiophen-2-yl)acetamide] | ≤ 5 | ≤ 5 | ≤ 5 | ≤ 5 | ≤ 5 | ≤ 5 | ≤ 5 |  | 
COc1cc(-c2n[nH]c3ccc(C(=O)NC(c4ccccc4)C4CC4)cc23)ccc1OC1CCN(C=O)CC1 (stereo not drawn) [Example A205, N-(cyclopropyl(phenyl)methyl)-3-(4-((1-formylpiperidin-4-yl)oxy)-3-methoxyphenyl)-1H-indazole-5-carboxamide] | ≤ 5 | ≤ 5 |  | ≤ 5 | ≤ 5 | ≤ 5 | ≤ 5 |  | 
O=C(NC(c1ccccc1)C1CC1)c1ccc2[nH]nc(-c3ccc(OC4CCN(CCF)CC4)cc3)c2c1 (stereo not drawn) [Example A122, N-(cyclopropyl(phenyl)methyl)-3-(4-((1-(2-fluoroethyl)piperidin-4-yl)oxy)phenyl)-1H-indazole-5-carboxamide] |  | ≤ 5 | ≤ 5 | ≤ 5 | ≤ 5 | ≤ 5 | ≤ 5 |  | 
COC(C(=O)Nc1ccc2[nH]nc(-c3ccc(N4CCC(O)CC4)cc3)c2c1)c1ccsc1 (stereo not drawn) [Example A87, N-(3-(4-(4-hydroxypiperidin-1-yl)phenyl)-1H-indazol-5-yl)-2-methoxy-2-(thiophen-3-yl)acetamide] |  | ≤ 5 | ≤ 5 | ≤ 5 | ≤ 5 | ≤ 5 | ≤ 5 |  | 
O=C(Nc1ccc2[nH]nc(-c3ccc(N4CCC(O)CC4)cc3)c2c1)C(c1ccsc1)N1CCC1 (stereo not drawn) [Example A200, 2-(azetidin-1-yl)-N-(3-(4-(4-hydroxypiperidin-1-yl)phenyl)-1H-indazol-5-yl)-2-(thiophen-3-yl)acetamide] | ≤ 5 | ≤ 5 |  | ≤ 5 | ≤ 5 | ≤ 5 | ≤ 5 |  | 
C[C@@H](NC(=O)c1ccc2[nH]nc(-c3ccc(OC4CCN(C)CC4)cc3)c2c1)c1cccs1 [Example A55, (R)-3-(4-((1-methylpiperidin-4-yl)oxy)phenyl)-N-(1-(thiophen-2-yl)ethyl)-1H-indazole-5-carboxamide] | ≤ 5 |  | ≤ 5 | ≤ 5 | ≤ 5 | ≤ 5 | ≤ 5 | ≤ 5 | ≤ 5
CCC(NC(=O)c1ccc2[nH]nc(-c3ccc(OC4CCN(C)CC4)cc3)c2c1)C1CCCCC1 (stereo not drawn) [Example A69, N-(1-cyclohexylpropyl)-3-(4-((1-methylpiperidin-4-yl)oxy)phenyl)-1H-indazole-5-carboxamide] | ≤ 5 |  | ≤ 5 | ≤ 5 | ≤ 5 | ≤ 5 | ≤ 5 | ≤ 5 | ≤ 5
